Structures are written as SMILES.

What all share (experiment): Bliss excess, mean over the matrix (fraction); higher = more synergy
Assay [1] concerns KM-H2 (Hodgkin's Lymphoma). An outline of the steps:
(§1)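 After 24 hours at 37°C and 5% CO2 in 1536-well plates, cells in DMEM/F12 or RPMI plus 10% FBS received two-drug dose matrices for 72 hours. Viability came from CellTiter-Glo 2.0 luminescence and was scaled as inhibition, anchored at 0 by vehicle wells and at 1 by blank wells. Combination Emax is taken as the second-highest inhibition in the matrix, and Bliss excess as the observed combination effect less EA + EB − EA·EB, with EA and EB the single-agent effects.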

The next assay relates to RH-1 (Ewing's Sarcoma). An outline of the steps: as §1
The subject of assay [2] is SUIT-2 (Pancreatic Carcinoma). The method in brief: as §1
Assay [3] relates to SW756 (Cervical Carcinoma). An outline of the steps:
as §1

The test system of assay [4] is SW780 (Bladder Carcinoma). An outline of the steps:
as §1

Assay [5] has as its system TGBC24TKB (Biliary Tract Carcinoma). The method in brief:
as §1

As to `CS(=O)(=O)CCNCc1ccc(-c2ccc3ncnc(Nc4ccc(OCc5cccc(F)c5)c(Cl)c4)c3c2)o1` [Lapatinib] + NC1(c2ccc(-c3nc4ccn5c(=O)[nH]nc5c4cc3-c3ccccc3)cc2)CCC1 [MK-2206] (first compound max 10 µM, 7x7, partner max 10 µM), the Bliss excess in assay [1] was 0.0116; in the assay on RH-1 (Ewing's Sarcoma), -0.0202; in assay [2], -0.0219; in assay [3], -0.0506; in assay [4], -0.0054; in assay [5], 0.0667.

The values are drawn from the supplement of paper PMC11061612.
